Laboratory results from patent US7132590B2, “Methods of making male-sterile plants by underexpressing allene oxide synthase” (The Arizona Board of Regents on Behalf of the University of …, priority 2001, dated 2006).
Entries after “also recorded” stand apart in the source; their conditions may differ.

Key:
Arabidopsis aos mutant = assay type: in vivo, Arabidopsis thaliana; conditions: for time after application at which aos mutant siliques started to elongate / time for aos mutant siliques to reach the wild-type silique size: after OPDA and MeJA spraying; for rescue of male sterile phenotype (silique elongation, fertility) of aos mutant: flower buds of 4 week old plants, twice a day for two days, 1% LA or 2 mM MeJA sprayed, 1 mM OPDA dipped, siliques monitored two weeks
Method: Application of linolenic acid (LA; Cayman Chemical, USA) and methyl jasmonate (MeJA; Sigma-Aldrich, USA) to recover male sterility of Arabidopsis aos mutant was done by spraying 1% of LA and 2 mM MeJA directly on Arabidopsis flower buds of 4 week old plants grown under long day condition. Oxo-phytodienoic acid (OPDA; Cayman Chemical, USA) was applied by dipping of floral buds in the 1 mM OPDA and 0.01% TritonX-100 (Sigma-Aldrich, USA) solution. These plants were sprayed twice a day for two days. The plants were monitored for silique production over the next two weeks.
The AOS gene is important in jasmonate biosynthesis because it catalyzes the most upstream step in the JA-specific biosynthetic pathway (FIG. 1).

[1] = tested on: triple mutant (fad3-2/fad7-2/fad8); conditions: mutant lacking hexadecatrienoic acid (16:3) and LA (18:3); McConn and Browse (1996); cited from earlier work
[2] = tested on: male-sterile mutant (dad1); conditions: Ishiguro et al. (2001); cited from earlier work

Row | Compound | time after application at which aos mutant siliques started to elongate (Arabidopsis aos mutant) | time for aos mutant siliques to reach the wild-type silique size (Arabidopsis aos mutant) | rescue of male sterile phenotype (silique elongation, fertility) of aos mutant (Arabidopsis aos mutant) | rescue of male sterility [1] | rescue of sterility phenotype [2]
1 | CC/C=C\CC1C(=O)CCC1CC(=O)OC (stereo not drawn) [MeJA, methyl jasmonate] | Two | in a week | rescued to wild-type; also recorded: can rescue the aos male sterile phenotype | – | –
2 | CC/C=C\C[C@@H]1C(=O)C=C[C@@H]1CCCCCCCC(=O)O [OPDA, Oxo-phytodienoic acid] | Two | in a week | rescued to wild-type | – | –
3 | CC/C=C\C[C@H]1C(=O)CC[C@@H]1CC(=O)O [jasmonic acid, Jasmonic acid] | – | – | restoration of essentially wild-type siliques and recovered fertility | could be rescued | could be rescued
